The record followed here is patent US4797415A, “Benzofuran derivatives and use thereof for treating hyperuricemia” (Kotobuki Seiyaku Company Limited, priority 1982, dated 1989).

The test system of data set [1] is phenol red retention in circulation. The data set is described as follows: Uricosuric activity by phenol red retention test in mice. Format: in vivo, male mice. As to conditions: Mus musculus, 1 h. The method, then: (§1) Blood samples were collected from the retro-orbital plexus into heparinized capillary tubes 60 minutes after the phenol red injection. The retention of phenol red in circulation was determined according to the method described in J. Med. Pharmaceu.
Benzobromarone was administered subcutaneously to mice in an amount of 200 mg./kg. as a control or standard.

For the next data set, the system named is phenol red retention. Briefly: Uricosuric activity by phenol red method in rats. Format: in vivo. The settings on record: p.o. 100 mg/kg. The method, then:
as §1
The same test of uricosuric activity was applied to rats.

Another data set in a line: in vivo. The settings on record: mouse, po, p.o. in mice. From the text:
In general, the compounds related to this invention have a potent uriosuric activiity and some of them are considered promising for clinical use. The toxicity of these compounds is much lower than that of the typical uricosuric agent: benzbromarone.

[2] abbreviates: po, mice, p.o. 200 mg/kg, 30 min before 75 mg/kg phenol red, blood 60 min after phenol red, read-out: phenol red retention, percentage by comparison with the control group, P.O. (200 mg/kg).
[3] abbreviates: sc, mice, s.c. 200 mg/kg, 30 min before 75 mg/kg phenol red, blood 60 min after phenol red, read-out: phenol red retention, percentage by comparison with the control group, S.C. (200 mg/kg).

Like-named read-outs stand apart in the source and are kept apart here.

On to `CCc1oc2ccccc2c1C(=O)c1cc(Br)c(O)c(Br)c1` [Benzbromarone, benzbromarone, reference compound], for which the response vs control in vivo at 200 mg/kg in data set [1] (sc, read-out: phenol red retention, percentage by comparison with the control group, S.C. (200 mg/kg)) is 184%. The “Phenol Red Retention % in Rats 100 mg/kg (p.o.)” value (“Phenol Red Retention % … (p.o.)” for short) in the data set on phenol red retention was determined as 163.9 ± 25.0%. Besides, the LD50 in “in vivo” turned out to be 361 mg/kg.
With `CCc1oc2ccccc2c1C(=O)c1ccc(OCC(=O)O)cc1` [Compound 3, 4-(2-ethyl-3-benzofuroyl)phenoxyacetic acid], the response vs control in vivo at 200 mg/kg worked out at 175 ± 15.5% in data set [1] (setting [2]) and 169 ± 18.1% in data set [1] (setting [3]). The “Phenol Red Retention % … (p.o.)” value with phenol red retention stood at 194.6 ± 29.7%. In the data set “in vivo”, this compound returned an LD50 of 2110 mg/kg.
Consider `CCc1oc2ccccc2c1C(=O)c1ccc(OCC(=O)O)c(Cl)c1` [Compound 22, 2-chloro-4-(2-ethyl-3-benzofuroyl)phenoxyacetic acid], for which the response vs control in vivo at 200 mg/kg is 190 ± 26.3% in data set [1] (setting [2]) and 211 ± 33.3% in data set [1] (setting [3]). In addition, the “Phenol Red Retention % … (p.o.)” value with phenol red retention came to 217.2 ± 17.2%.
For `CCc1oc2ccccc2c1C(=O)c1ccc(OCC(=O)O)c(C)c1` [Compound 25, 2-methyl-4-(2-ethyl-3-benzofuroyl)phenoxyacetic acid] the same measures were 200 ± 25%, 189 ± 27.8% and 208.1 ± 27.0%.
Turning to `CCc1oc2ccccc2c1C(=O)c1ccc(OCC(=O)O)c(C)c1C` [Compound 35, 2,3-dimethyl-4-(2-ethyl-3-benzofuroyl)phenoxyacetic acid], the response vs control in vivo at 200 mg/kg in data set [1] (setting [2]) came out at 319 ± 14.3%. In addition, the “Phenol Red Retention % … (p.o.)” value in the data set on phenol red retention is 269.0 ± 31.0%.
As for `CCc1oc2ccccc2c1C(=O)c1cc(C)c(OCC(=O)O)cc1C` [Compound 39], the response vs control in vivo at 200 mg/kg in data set [1] (setting [2]) came to 410 ± 28.6%. In the data set with phenol red retention, the “Phenol Red Retention % … (p.o.)” value was 175.7 ± 21.6%.
With `CCc1oc2ccccc2c1C(=O)c1cc(C)c(OCc2nnn[nH]2)c(C)c1` [Compound 48, 5-[2,6-dimethyl-4-(2-ethyl-3-benzofuroyl)phenoxymethyl]tetrazole], the response vs control in vivo at 200 mg/kg in data set [1] (setting [2]) worked out at 296 ± 56%.

One may read the LD50 as the dose at which mortality reaches 50%. Low values mean a more toxic substance, high ones a less toxic substance.
